From patent publication US20140134135A1, “METHODS AND COMPOSITIONS FOR PRESERVING LEAN BODY MASS DURING WEIGHT LOSS” (NESTEC SA, priority 2011, published 2014)

Assay: Four-month weight loss study with oral OEA in the diet; body weight and body composition by DEXA
Format: in vivo, dogs (adult Labradors)
From the text: The physiological effects of regular oral OEA administration were investigated. OEA was provided as a supplement to dogs for four months to study the effect on body weight loss and body composition. Seventeen adult Labradors participated in the study. Males with greater than 22% body fat and females with greater than 26% body fat were selected. Based on maintenance energy requirements (MER), body weight and percentage of body fat, the dogs were randomly assigned into two groups. The control group (N=9) received a standard dry adult dog food (the control diet without any OEA). The test group (N=8) received the selected dose of OEA incorporated into the standard diet. The dogs were fed 25% less than their MER for 3 months and an additional 15% less for the next month. Body weight was recorded weekly and dual X-ray absorptiometry (DEXA) scans were performed at baseline and every month.

[1] = dogs fed OEA containing diet, calorie restricted, four months, chronic oral
[2] = dogs fed a weight loss diet with OEA

CCCCCCCC/C=C\CCCCCCCC(=O)NCCO [OEA, oleoylethanolamide]
Fat Loss (g/kg body weight loss) [1]: 561 g/kg body weight loss
Lean Loss (g/kg body weight loss) [1]: 469 g/kg body weight loss
body fat loss versus weight loss diet without OEA (in words) [2]: more loss in body fat
lean body mass loss versus weight loss diet without OEA (in words) [2]: reduced loss of lean body mass
less fat lost by dogs fed the control diet than by dogs fed the OEA containing diet, for every kilogram of body weight loss (end of the four month study, control diet versus OEA diet): 52%
less lean body mass lost than dogs fed the control diet, for every kilogram of body weight loss (end of the four month study, versus control diet): 20%
change in body fat (end of the four month study, control diet −0.3%): −1.8%
change in lean body mass (end of the four month study, control diet −1432.2 g): -1166.6 g
